Ten compounds from patent US8299077B2 (Roche Palo Alto LLC, priority 2009, dated 2012) can be followed below.

Series [1] has as its system B cell receptor-mediated activation of B cells in human blood (CD69 expression). In words: Inhibition of B cell activation in whole blood measured by CD69 expression. Format: cell-based. The following applies: anti-IgM stimulation, 20 h, 50% decrease of CD69-positive cells that are also CD20-positive. The essentials:
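Healthy-donor human whole blood (heparin) preincubated with compound (nine-point, three-fold dilutions) for 30 min at 37 °C, then stimulated with goat F(ab′)2 anti-human IgM (50 μg/ml final) for 20 h. CD69-positive B cells (CD20 gating) measured by flow cytometry as percent positive; IC50 from dose-response fit.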

Some results are limits rather than exact numbers.

The term melting point denotes the temperature, or range, at which the solid turns liquid. Usually IC50 stands for the concentration needed to halve the response being measured. Read a low IC50 as inhibition by little substance.

Regarding `Cn1cc(-c2cccc(-n3ncc4cc(C(C)(C)C)cc(F)c4c3=O)c2CO)cc(Nc2ccc(C(C)(C)C(=O)O)cn2)c1=O` [Example 18, 2-(6-{5-[3-(6-tert-butyl-8-fluoro-1-oxo-1H-phthalazin-2-yl)-2-hydroxymethyl-phenyl]-1-methyl-2-oxo-1,2-dihydro-pyridin-3-ylamino}-pyridin-3-yl)-2-methyl-propionic acid], the melting point is 218 to 220 °C.
On the same count and under the same terms, the result for `CN1CC(Oc2ccc(Nc3cc(-c4cccc(-n5ncc6cc(C(C)(C)C)cc(F)c6c5=O)c4CO)cn(C)c3=O)nc2)C1` [Example 27, 6-tert-Butyl-8-fluoro-2-(2-hydroxymethyl-3-{1-methyl-5-[5-(1-methyl-azetidin-3-yloxy)-pyridin-2-ylamino]-6-oxo-1,6-dihydro-pyridin-3-yl}-phenyl)-2H-phthalazin-1-one] reads over 300 °C; that for `CCNCc1ccc(Nc2cc(-c3cccc(-n4ncc5cc(C(C)(C)C)cc(F)c5c4=O)c3CO)cn(C)c2=O)nc1` [Example 29, 6-tert-Butyl-2-{3-[5-(5-ethylaminomethyl-pyridin-2-ylamino)-1-methyl-6-oxo-1,6-dihydro-pyridin-3-yl]-2-hydroxymethyl-phenyl}-8-fluoro-2H-phthalazin-1-one], 265 to 268 °C.
On the same count and under the same terms, then `Cn1cc(-c2cccc(-n3ncc4cc(C(C)(C)C)cc(F)c4c3=O)c2CO)cc(Nc2ccc(C(C)(C)O)cn2)c1=O` [Example 37, 6-tert-Butyl-8-fluoro-2-(2-hydroxymethyl-3-{5-[5-(1-hydroxy-1-methyl-ethyl)-pyridin-2-ylamino]-1-methyl-6-oxo-1,6-dihydro-pyridin-3-yl}-phenyl)-2H-phthalazin-1-one], with 200 to 205 °C; and `CCNC(C)(C)c1ccc(Nc2cc(-c3cccc(-n4ncc5cc(C(C)(C)C)cc(F)c5c4=O)c3CO)cn(C)c2=O)nc1` [Example 260, 6-tert-Butyl-2-(3-{5-[5-(1-ethylamino-1-methyl-ethyl)-pyridin-2-ylamino]-1-methyl-6-oxo-1,6-dihydro-pyridin-3-yl}-2-hydroxymethyl-phenyl)-8-fluoro-2H-phthalazin-1-one], with 195 to 200 °C.
For the compound `CN1CCN(Cc2ccc(Nc3cc(-c4cccc(-n5ncc6cc(C(C)(C)C)cc(F)c6c5=O)c4CO)cn(C)c3=O)nc2)CC1` [Example I-15, 6-tert-butyl-8-fluoro-2-(2-hydroxymethyl-3-{1-methyl-5-[5-(4-methyl-piperazin-1-ylmethyl)-pyridin-2-ylamino]-6-oxo-1,6-dihydro-pyridin-3-yl}-phenyl)-2H-phthalazin-1-one], the melting point was 235 to 238 °C. For the same compound, in series [1], the half-inhibitory concentration (IC50) came out at 7 nM.
In series [1], `Cn1cc(-c2cccc(-n3ncc4cc(C(C)(C)C)cc(F)c4c3=O)c2CO)cc(Nc2ccc(CN3CCC(N)C3)cn2)c1=O` (centres unmarked) [Example I-86, 2-(3-{5-[5-(3-Amino-pyrrolidin-1-ylmethyl)-pyridin-2-ylamino]-1-methyl-6-oxo-1,6-dihydro-pyridin-3-yl}-2-hydroxymethyl-phenyl)-6-tert-butyl-8-fluoro-2H-phthalazin-1-one] returned a half-inhibitory concentration (IC50) of 101 nM.
Same read-out and setting: then `Cn1cc(-c2cccc(-n3ncc4cc(C(C)(C)C)cc(F)c4c3=O)c2CO)cc(Nc2ccc(N3C[C@H]4CC[C@@H](C3)N4)cn2)c1=O` [Example I-87, 6-tert-Butyl-2-(3-{5-[(1S,5R)-5-(3,8-diaza-bicyclo[3.2.1]oct-3-yl)-pyridin-2-ylamino]-1-methyl-6-oxo-1,6-dihydro-pyridin-3-yl}-2-hydroxymethyl-phenyl)-8-fluoro-2H-phthalazin-1-one], with 24 nM; and `CNCCOc1ccc(Nc2cc(-c3cccc(-n4ncc5cc(C(C)(C)C)cc(F)c5c4=O)c3CO)cn(C)c2=O)nc1` [Example I-88, 6-tert-Butyl-8-fluoro-2-(2-hydroxymethyl-3-{1-methyl-5-[5-(2-methylamino-ethoxy)-pyridin-2-ylamino]-6-oxo-1,6-dihydro-pyridin-3-yl}-phenyl)-2H-phthalazin-1-one], with 9 nM; and `CN1CCN(C)C(c2ccc(Nc3nc(-c4cccc(-n5ncc6cc(C(C)(C)C)cc(F)c6c5=O)c4CO)cn(C)c3=O)cc2)C1=O` (centres unmarked) [Example I-89, 6-tert-Butyl-2-(3-{6-[4-(1,4-dimethyl-3-oxo-piperazin-2-yl)-phenylamino]-4-methyl-5-oxo-4,5-dihydro-pyrazin-2-yl}-2-hydroxymethyl-phenyl)-8-fluoro-2H-phthalazin-1-one], with 12 nM.
